# Measurements reported in patent US10064885B2, “Metabolic gene, enzyme, and flux targets for cancer therapy” (Massachusetts Institute of Technology, priority 2010, dated 2018).
# Legend:
# Format in all cases: cell-based, human
# [1] = system: HCT116 colon carcinoma; test: Reductive carboxylation by [1-13C]glutamine labeling and GC/MS in HCT116 cells expressing shRNAs
# Procedure: (§1) Cell Culture, Isotopic Labeling, and Hypoxia. All cell lines were cultured in Dulbecco's Modified Eagle Medium (DMEM; Mediatech) containing 10% fetal bovine serum (FBS; Invitrogen) and 100 U/ml penicillin/streptomycin (P/S; Mediatech) unless otherwise mentioned. Cell lines were obtained from ATCC unless otherwise noted. The VC3 glioma cell line was provided by Tim Lautenschlaeger (Ohio State University), MDA-MB-231 and HCT116 cell lines were provided by Ferdinando Chiaradonna (University of Milano-Bicocca), MRC5 cells were provided by Stephen Lippard (MIT), SN12C, ACHN, and 786-O cells were provided by Kevin Courtney and Lew Cantley (Harvard Medical School), and MCF10A cells were provided by Joan Brugge (Harvard Medical School), and Huh7 cells were provided by Mike Hemann (MIT). MCF10A cells were cultured in custom DMEM/F12 (Hyclone) containing 5% horse serum, 20 ng/ml EGF, 10 μg/ml insulin, 100 ng/ml cholera toxin, 0.5 mg/ml hydrocortisone, 100 U/ml penicillin/streptomycin, and labeled/unlabeled glucose and glutamine at 18 mM and 2.5 mM, respectively. PRC3, WT8, pTV, and pTR cell lines were subcloned from the 786-O cell line as previously described (42, 43). For isotopic labeling experiments, cells were cultured in 6 well plates in glucose- and glutamine-free DMEM (Sigma) containing 10% dialyzed FBS (Invitrogen), 100 U/ml P/S, naturally labeled glucose or glutamine, and the appropriate tracer, including [U-^13C5]glutamine (Isotec), [5-^13C]glutamine (C/D/N Isotopes), [1-^13C]glutamine, [U-^13C6]glucose, [1,2-^13C2]glucose (all from Cambridge Isotope Labs). Steady state labeling of organic and amino acids was accomplished by culturing subconfluent cells in tracer medium for 24 hours. […] The internal gas content was monitored using Fyrite gas analyzers (Bacharach) for CO2 and O2. […]
# (§2) Metabolite Extraction and Gas Chromatography/Mass Spectrometry (GC/MS) Analysis. […] In some ISA experiments, cells were trypsinized, counted, and pelleted prior to lipid extraction as described above. […]
# [2] = system: 143B osteosarcoma; test: Reductive carboxylation by [1-13C]glutamine labeling and GC/MS in 143B cells expressing shRNAs
# Procedure: as §1, with “respectively.” for “respectively. PRC3, WT8, pTV, and pTR cell lines were subcloned from the 786-O cell line as previously described (42, 43). For isotopic labeling experiments, cells were cultured in 6 well plates in glucose- and glutamine-free DMEM (Sigma) containing 10% dialyzed FBS (Invitrogen), 100 U/ml P/S, naturally labeled glucose or glutamine, and the appropriate tracer, including [U-^13C5]glutamine (Isotec), [5-^13C]glutamine (C/D/N Isotopes), [1-^13C]glutamine, [U-^13C6]glucose, [1,2-^13C2]glucose (all from Cambridge Isotope Labs). Steady state labeling of organic and amino acids was accomplished by culturing subconfluent cells in tracer medium for 24 hours.”
# as §2
# [3] = system: A549 cells; test: 13C Metabolic Flux Analysis (MFA) of A549 cells expressing IDH1-targeting shRNAs, [U-13C5]glutamine tracer
# Procedure: Cell Culture, Isotopic Labeling, and Hypoxia. All cell lines were cultured in Dulbecco's Modified Eagle Medium (DMEM; Mediatech) containing 10% fetal bovine serum (FBS; Invitrogen) and 100 U/ml penicillin/streptomycin (P/S; Mediatech) unless otherwise mentioned. Cell lines were obtained from ATCC unless otherwise noted. The VC3 glioma cell line was provided by Tim Lautenschlaeger (Ohio State University), MDA-MB-231 and HCT116 cell lines were provided by Ferdinando Chiaradonna (University of Milano-Bicocca), MRC5 cells were provided by Stephen Lippard (MIT), SN12C, ACHN, and 786-O cells were provided by Kevin Courtney and Lew Cantley (Harvard Medical School), and MCF10A cells were provided by Joan Brugge (Harvard Medical School), and Huh7 cells were provided by Mike Hemann (MIT). MCF10A cells were cultured in custom DMEM/F12 (Hyclone) containing 5% horse serum, 20 ng/ml EGF, 10 μg/ml insulin, 100 ng/ml cholera toxin, 0.5 mg/ml hydrocortisone, 100 U/ml penicillin/streptomycin, and labeled/unlabeled glucose and glutamine at 18 mM and 2.5 mM, respectively. PRC3, WT8, pTV, and pTR cell lines were subcloned from the 786-O cell line as previously described (42, 43). For isotopic labeling experiments, cells were cultured in 6 well plates in glucose- and glutamine-free DMEM (Sigma) containing 10% dialyzed FBS (Invitrogen), 100 U/ml P/S, naturally labeled glucose or glutamine, and the appropriate tracer, including [U-^13C5]glutamine (Isotec), [5-^13C]glutamine (C/D/N Isotopes), [1-^13C]glutamine, [U-^13C6]glucose, [1,2-^13C2]glucose (all from Cambridge Isotope Labs). Steady state labeling of organic and amino acids was accomplished by culturing subconfluent cells in tracer medium for 24 hours. Labeling of fatty acids for Isotopomer Spectral Analysis (USA) was conducted over 3-5 days of culture in an excess of tracer medium (3-4 ml/well in a 6 well plate) to prevent nutrient depletion. Hypoxic culture was conducted by feeding a custom mixture of 1% O2, 5% CO2, and 94% N2 to a standard incubator controlled at 5% CO2. HEPES (Mediatech) was added to the culture medium at 20 mM to maintain pH between normoxic and hypoxic cultures. The internal gas content was monitored using Fyrite gas analyzers (Bacharach) for CO2 and O2. O2 levels were confirmed at 1.5-2% during hypoxic culture.
# Stable cell cultures with decreased IDH1 and IDH2 expression were generated via lentiviral-mediated shRNA expression. pLKO.1 lentiviral vectors targeting IDH1 with shRNA sequences of […] TT (IDH1a; TRCN0000027298; SEQ ID NO:1) and […] TT (IDH1b; TRCN0000027289; SEQ ID NO:2), IDH2 with shRNA sequence […] TT (TRCN0000027225; SEQ ID NO:3). For controls, either non-targeting control shRNA (SHC002; Sigma) or pLKO.1 scrambled control vector (44)(Addgene) were used. pLKO.1 vector targeting ARNT with shRNA sequence […] TT (TRCN0000003819; SEQ ID NO:4) was obtained from Open Biosystems.
# HEK293T cells were co-transfected with pLKO.1 vectors and packaging plasmids to produce lentivirus. Filtered supernatants were used for infection, and cells were selected with puromycin (2 μg/ml) for at least two passages before initiating tracer and flux experiments.
# Metabolite Extraction and Gas Chromatography/Mass Spectrometry (GC/MS) Analysis. At the conclusion of culture, cells were rinsed with 1 ml ice cold PBS and quenched with 0.4 ml ice cold methanol. An equal volume of water was added, and cells were collected in tubes by scraping with a pipette. One volume of ice cold chloroform was added to each tube, and the extracts were vortexed at 4° C. for 30 minutes. Samples were centrifuged at 14,000 g for 5 minutes at room temperature. For analysis of polar metabolites, the aqueous phase was transferred to a new tube for evaporation under airflow. For ISA experiments, the non-polar fraction was collected and evaporated under airflow. In some ISA experiments, cells were trypsinized, counted, and pelleted prior to lipid extraction as described above. […]
# [4] = system: Hypoxia response element- (HRE-) driven reporter; test: Hypoxia response element (HRE)-driven reporter in HCT116 cells expressing IDH1-targeting shRNAs; conditions: normal culture, hypoxia, or 1 mM DMOG, 18 hours
# Procedure: Luciferase Assays. Subconfluent cells in 6 well plates were co-transfected with 1 μg of a firefly luciferase vector and 50 ng Renilla luciferase vector (pRL-TK; Promega) using Fugene 6 reagent. The ODD-Luciferase and Luciferase vectors were obtained from Addgene and based off of the pcDNA3.1 vector (49). Hypoxia responsive element-luciferase (HRE-Luc) vectors were used as described (50). Approximately 24 hours after transfection, medium was changed and cells were placed under normoxia, hypoxia, or treated with 1 mM dimethyloxalylglycine (DMOG). After 18 hours of treatment, cells were lysed and luciferase activity was determined using the Dual Luciferase Reporter Assay system (Promega) according to the manufacturer's instructions.
# [5] = system: MDA-MB-231 breast carcinoma; test: Reductive carboxylation by [1-13C]glutamine labeling and GC/MS in MDA-MB-231 cells expressing shRNAs
# Procedure: as §1, §2
# [6] = system: A549 cells; test: Reductive glutamine metabolism by isotopic labeling and GC/MS in A549 cells expressing shRNAs
# Procedure: as §1, §2
# [7] = Anaplerotic reactions, exchange flux
# [8] = Anaplerotic reactions, net flux
# [9] = Pentose Phosphate Pathway, exchange flux
# [10] = Pentose Phosphate Pathway, net flux
sequence,measurement,setting,value
"CCGGCGAATCATTTGGGAATTGATTCTCGAGAATCAATTCCCAAATGATTCGTTT TT (CCGGCGAATCATTTGGGAATTGATTCTCGAGAATCAATTCCCAAATGATTCGTTTTT; expressed or natural sequence) [IDH1b, pLKO.1 lentiviral vector shRNA targeting IDH1]",reductive carboxylation flux (M1 label from [1-13C]glutamine),[1],reduces reductive carboxylation flux
same,reductive carboxylation flux,[2],reduces reductive carboxylation flux
same,Flux Pyr.m <−> Ala,"[3]; Amino acids, exchange flux",0.00 fmol/cell*hr
same,Flux Gln −> Glu,"[3]; Amino acids, net flux",24.57 fmol/cell*hr
same,Flux Gln.x −> Gln,"[3]; Amino acids, net flux",25.06 fmol/cell*hr
same,Flux Glu −> Glu.x,"[3]; Amino acids, net flux",19.91 fmol/cell*hr
same,Flux Pyr.m −> Ala,"[3]; Amino acids, net flux",0.42 fmol/cell*hr
same,Flux Glu <−> Akg,[3]; [7],442.50 fmol/cell*hr
same,Flux Mal <−> Pyr.m + CO2,[3]; [7],1.64 fmol/cell*hr
same,Flux Oac <−> Asp,[3]; [7],372.30 fmol/cell*hr
same,Flux Glu −> Akg,[3]; [8],4.16 fmol/cell*hr
same,Flux Mal −> Pyr.m + CO2,[3]; [8],3.56 fmol/cell*hr
same,Flux Oac −> Asp,[3]; [8],0.60 fmol/cell*hr
same,Flux Pyr.m + CO2 −> Oac,[3]; [8],0.00 fmol/cell*hr
same,Flux 0.6*Asp + 0.5*Glu + 0.42*Ala + 0.5*Gln −> Biomass,"[3]; Biomass, net flux",1.00 fmol/cell*hr
same,Flux AcCoA.c −> Fatty acids,"[3]; Biomass, net flux",11.28 fmol/cell*hr
same,Flux Cit −> AcCoA.c + Oac,"[3]; Biomass, net flux",11.28 fmol/cell*hr
same,Flux P5P −> NTP,"[3]; Biomass, net flux",0.50 fmol/cell*hr
same,Flux 0*Pyr.c −> Pyr.mnt,[3]; Dilution/Mixing,0.82 fmol/cell*hr
same,Flux 0*Pyr.m −> Pyr.mnt,[3]; Dilution/Mixing,0.18 fmol/cell*hr
same,Flux 0*Suc −> Suc.mnt,[3]; Dilution/Mixing,0.85 fmol/cell*hr
same,Flux Suc.d −> Suc.mnt,[3]; Dilution/Mixing,0.15 fmol/cell*hr
same,Flux Pyr.c <−> Pyr.m,"[3]; Dilution/Mixing, exchange flux",49.63 fmol/cell*hr
same,Flux Pyr.c −> Pyr.m,"[3]; Dilution/Mixing, net flux",13.19 fmol/cell*hr
same,Flux DHAP <−> GAP,"[3]; Glycolysis, exchange flux",550.40 fmol/cell*hr
same,Flux G6P <−> F6P,"[3]; Glycolysis, exchange flux",0.00 fmol/cell*hr
same,Flux GAP <−> 3PG,"[3]; Glycolysis, exchange flux",160.00 fmol/cell*hr
same,Flux Pyr.c <−> Lac,"[3]; Glycolysis, exchange flux",695.70 fmol/cell*hr
same,Flux 3PG −> Pyr.c,"[3]; Glycolysis, net flux",217.80 fmol/cell*hr
same,Flux DHAP −> GAP,"[3]; Glycolysis, net flux",107.60 fmol/cell*hr
same,Flux F6P −> DHAP + GAP,"[3]; Glycolysis, net flux",107.60 fmol/cell*hr
same,Flux G6P −> F6P,"[3]; Glycolysis, net flux",102.60 fmol/cell*hr
same,Flux GAP −> 3PG,"[3]; Glycolysis, net flux",217.80 fmol/cell*hr
same,Flux Glc.x −> G6P,"[3]; Glycolysis, net flux",110.60 fmol/cell*hr
same,Flux Lac −> Lac.x,"[3]; Glycolysis, net flux",204.60 fmol/cell*hr
same,Flux Pyr.c −> Lac,"[3]; Glycolysis, net flux",204.60 fmol/cell*hr
same,Flux P5P + E4P <−> F6P + GAP,[3]; [9],1.9E+06 fmol/cell*hr
same,Flux P5P + P5P <−> S7P + GAP,[3]; [9],6.3E+07 fmol/cell*hr
same,Flux S7P + GAP <−> F6P + E4P,[3]; [9],1.1E+06 fmol/cell*hr
same,Flux G6P −> P5P + CO2,[3]; [10],8.01 fmol/cell*hr
same,Flux P5P + E4P −> F6P + GAP,[3]; [10],2.50 fmol/cell*hr
same,Flux P5P + P5P −> S7P + GAP,[3]; [10],2.50 fmol/cell*hr
same,Flux S7P + GAP −> F6P + E4P,[3]; [10],2.50 fmol/cell*hr
same,Flux Fum <−> Mal,"[3]; TCA Cycle, exchange flux",1.6E+07 fmol/cell*hr
same,Flux Mal <−> Oac,"[3]; TCA Cycle, exchange flux",124.70 fmol/cell*hr
same,Flux Suc <−> Fum,"[3]; TCA Cycle, exchange flux",0.29 fmol/cell*hr
same,Flux Cit <−> Akg + CO2,"[3]; TCA Cycle, exchange flux (reductive IDH flux)",2.39 fmol/cell*hr
same,Flux AcCoA.m + Oac −> Cit,"[3]; TCA Cycle, net flux",16.33 fmol/cell*hr
same,Flux Akg −> Suc + CO2,"[3]; TCA Cycle, net flux",9.21 fmol/cell*hr
same,Flux Fum −> Mal,"[3]; TCA Cycle, net flux",9.21 fmol/cell*hr
same,Flux Mal −> Oac,"[3]; TCA Cycle, net flux",5.65 fmol/cell*hr
same,Flux Pyr.m −> AcCoA.m + CO2,"[3]; TCA Cycle, net flux",16.33 fmol/cell*hr
same,Flux Suc −> Fum,"[3]; TCA Cycle, net flux",9.21 fmol/cell*hr
same,Flux Cit −> Akg + CO2,"[3]; TCA Cycle, net flux (IDH)",5.05 fmol/cell*hr
same,HRE-driven reporter levels (hypoxia signaling),[4],does not increase hypoxia signaling and stabilization
same,reductive carboxylation flux (M1 label from [1-13C]glutamine),[5],reduces reductive carboxylation flux
same,M3 mass isotopomers derived from [U-13C5]glutamine (reductive carboxylation),"[6]; [U-13C5]glutamine, aspartate, malate, fumarate",decrease in reductive carboxylation
"CCGGGTGGACATCCAGCTAAAGTATCTCGAGATACTTTAGCTGGATGTCCACTTT TT (CCGGGTGGACATCCAGCTAAAGTATCTCGAGATACTTTAGCTGGATGTCCACTTTTT; expressed or natural sequence) [IDH2 shRNA, pLKO.1 lentiviral vector shRNA targeting IDH2]",reductive carboxylation flux (M1 label from [1-13C]glutamine),[1],does not affect reductive carboxylation flux
same,reductive carboxylation flux (M1 label from [1-13C]glutamine),[5],does not affect reductive carboxylation flux
same,reductive carboxylation (M1 label from [1-13C]glutamine),[6]; [1-13C]glutamine,does not affect reductive carboxylation flux
